The source of these data is US11319316B2, “Compounds that induce degradation of anti-apoptotic Bcl-2 family proteins and the uses thereof” (BioVentures, LLC, priority 2016, dated 2022).

As a reminder, the EC50 is the concentration that produces a half-maximal response.

Structures are written as SMILES. Like-named read-outs stand apart in the source and are kept apart here.

What all share (format): cell-based
The target in assay [1] is T1, Bcl-xL (Homo sapiens, UniProt Q07817).
T1 construct: endogenous in cells; host or cells: WI38 cells (normal NC-WI38 and ionizing-radiation-induced senescent IR-SC WI38)
T1 sequence (Q07817 whole entry): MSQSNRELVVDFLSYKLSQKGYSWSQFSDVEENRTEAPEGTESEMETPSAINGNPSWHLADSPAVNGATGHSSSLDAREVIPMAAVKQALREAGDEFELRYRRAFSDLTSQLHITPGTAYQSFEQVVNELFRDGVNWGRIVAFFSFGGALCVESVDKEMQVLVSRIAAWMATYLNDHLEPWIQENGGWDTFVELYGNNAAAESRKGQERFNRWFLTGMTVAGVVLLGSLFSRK
The assay can be described thus: Protein degradation assay (Western blot) in IR-SC WI38 cells. The protocol: IR-SC WI38 cells were incubated with vehicle or increasing concentrations of XZ-14439 for 18 hours at increasing […] (FIG. 3A) and at a fixed concentration of XZ-14439 for increasing times (FIG. […]). The cells were digested with 0.25% trypsin and 1 mM EDTA, and harvested in RIPA lysis buffer with 1% Phosphatase Inhibitor Cocktail 3 and 1% Protease Inhibitor Cocktail. An equal amount of protein (15-30 μg/lane) from each cell extract was resolved on a 12% SDS-PAGE gel. Proteins were blotted onto a NOVEX PVDF membrane by electrophoresis. The membranes were blocked with TBS-T blocking buffer (5% nonfat milk in 25 mM Tris-HCL, pH 7.4; 3 mM KCl; […] NaCl; and 0.05% Tween) and probed with primary antibodies (at a predetermined optimal concentration) overnight at 4° C. or for 1 hour at room temperature. After extensive washing with TBS-T, the membranes were incubated with an appropriate peroxidase-conjugated secondary antibody for 1 hour at room temperature. After three washes with TBS-T, the proteins of interest were detected with ECL Western Blotting Detection Reagents and recorded with autoradiography (Pierce Biotech, Rockford, Ill., USA). The primary antibody Bcl-x (#2762), Bcl-2 antibody (#2872S) and β-actin (13E5, #4970) were purchased from Cell Signaling.
(§1) IR-SC WI38 (FIG. 4A) and RS4; 11 (FIG. 4B) cells were incubated with vehicle or increasing concentrations of compounds of Formula (I) or Formula (II) for 6 or 16 hours, at 1 μM (FIG. 4A) and 100 nm (FIG. 4B), respectively. The cells were harvested in RIPA lysis buffer with 1% Phosphatase Inhibitor Cocktail 3 and 1% Protease Inhibitor Cocktail. An equal amount of protein (15-30 μg/lane) from each cell extract was resolved on a 12% SDS-PAGE gel. Proteins were blotted onto a NOVEX PVDF membrane by electrophoresis. The membranes were blocked with TBS-T blocking buffer (5% nonfat milk in 25 mM Tris-HCL, pH 7.4; 3 mM KCl; 140 mM NaCl; and 0.05% Tween) and probed with primary antibodies (at a predetermined optimal concentration) overnight at 4° C. or for 1 hour at room temperature. After extensive washing with TBS-T, the membranes were incubated with an appropriate peroxidase-conjugated secondary antibody (Jackson ImmunoResearch Europe, Suffolk, UK) for 1 hour at room temperature. After three washes with TBS-T, the proteins of interest were detected with ECL Western Blotting Detection Reagents and recorded with autoradiography. The primary antibody Bcl-xl (#2762), Bcl-2 antibody (#2872S), Bcl-w (#2724S), Mcl-1 (#5453s) and β-actin (13E5, #4970) were purchased from Cell Signaling.
A general note: A western blot detects proteins with antibodies after separation by electrophoresis.

The subject of assay [2] is NCI-H146 cancer cells. Kind of assay: Cancer cell viability by MTS, 72 h, NCI-H146. How it is done:
(§2) RS4; 11 and NCI-H146 cancer cells were incubated with vehicle or increasing concentrations of compounds of Formula (I) and Formula (II). At 72 hours post-treatment cell viability was measured by MTS and EC50 was calculated as a percentage of control cells treated with vehicle. Table 1 depicts the EC50 values of compounds of Formula (I) and Formula (II) against RS4; 11 and NCI-H146.

The target of assay [3] is T1, Bcl-xL. The assay can be described thus: Protein degradation assay (Western blot) in RS4;11 cells. Set-up: dose or concentration left out as unconfirmed. The protocol: as §1, with “IR-SC WI38 (FIG. 4A) and RS4; 11 (FIG. 4B) cells were incubated with vehicle or increasing concentrations of compounds of Formula (I) or Formula (II) for 6 or 16 hours, at 1 μM (FIG. 4A) and 100 nm (FIG. 4B), respectively.” left out

The test system of assay [4] is RS4; 11 cancer cells. Kind of assay: Cancer cell viability by MTS, 72 h, RS4;11. As to conditions: RS4;11 cells. The protocol:
as §2

Assay [5] concerns IR-induced senescent WI38 cells (IR-SC). The assay can be described thus: Viability of IR-induced senescent WI38 cells (IR-SC), 72 h, PI staining and flow cytometry. As to conditions: for EC50: IR-induced senescent WI38 cells, 72 hours, viable (PI-) cells as percentage of vehicle control; for Ratio NSC/SC: ratio of WI38 EC50 in NSC to EC50 in IR-SC. The protocol: (§3) Normal WI38 (NSC) and IR-induced senescent WI38 cells (IR-SC) were incubated with vehicle or increasing concentrations of compounds of Formula (I) or Formula (II) for 72 hours. The cells were digested with 0.25% trypsin and 1 mM EDTA, and harvested in PBS containing 2% FBS. After incubation with propidium iodide (PI, 100 ng/ml) in PBS at room temperature for 1 minute, cells were centrifuged at 1,200 rpm for 6 minutes to remove PI and then resuspended in PBS containing 2% FBS for analysis using a flow cytometer. Viable cells (PI-cells) were analyzed by flow cytometry at a constant flow rate to count the number of cells and calculated as a percentage of control cells treated with vehicle. Table 1 depicts the EC50 values of the compounds of Formula (I) and compounds of Formula (II) against normal WI38 and IR-induced senescent WI38.

Assay [6] has as its system Normal WI38 (NSC). The assay can be described thus: Viability of normal WI38 cells (NSC), 72 h, PI staining and flow cytometry. How it is done:
as §3
(In general: In flow cytometry, cells or beads pass a laser one at a time.)

Assay [7] concerns the target T1, Bcl-xL. The assay can be described thus: Bcl-xL depletion in normal WI38 (NC-WI38) cells. As to conditions: 2 μM; FIG. 1.
Where [8] appears, read: Homo sapiens, WI-38, viable (PI-) cells as percentage of vehicle control.

Take `CC1(C)CCC(c2ccc(Cl)cc2)=C(CN2CCN(c3ccc(C(=O)NS(=O)(=O)c4ccc(N[C@H](CCN5CCN(C(=O)CCCn6cc(COCCOCCNc7cccc8c7C(=O)N(C7CCC(=O)NC7=O)C8=O)nn6)CC5)CSc5ccccc5)c(S(=O)(=O)C(F)(F)F)c4)cc3)CC2)C1` (stereo partly drawn) [PZ-15227]: the “Bcl-xL depletion in IR-SC WI38 cells” value in assay [1] (1 μM (FIG. 4A)) is reported as “deplete Bcl-xL”. For the same compound, the EC50 in assay [2] was 68.9 nM; in assay [4], 114 nM; in assay [5], 108 nM; in assay [6] (viable (PI-) cells as percentage of vehicle control) it was greater than 10 µM. Moreover, the “Bcl-xL depletion in RS4; 11 cells” value in assay [3] was “deplete Bcl-xL”. Besides, the “Ratio NSC/SC” value in assay [5] was greater than 92.

Take `O=C1CCC(N2C(=O)c3cccc(NCCOCCOCCOCc4cn(CCCC(=O)N5CCN(CC#Cc6ccc(OCCCc7sc(N8CCc9cccc(C(=O)Nc%10nc%11ccccc%11s%10)c9C8)nc7C(=O)O)c(F)c6)CC5)nn4)c3C2=O)C(=O)N1` (stereo not drawn) [XZ-13906, 2-(8-(benzo[d]thiazol-2-ylcarbamoyl)-3,4-dihydroisoquinolin-2(1H)-yl)-5-(3-(4-(3-(4-(4-(4-((2-(2-(2-(2-(2,6-dioxopiperidin-3-yl)-1,3-dioxoisoindolin-4-ylamino)ethoxy)ethoxy)ethoxy)methyl)-1H-1,2,3-triazol-1-yl)butanoyl)piperazin-1-yl)prop-1-ynyl)-2-fluorophenoxy)propyl)thiazole-4-carboxylic acid]: in assay [1] (2 μM, FIG. 1), the “Bcl-xL depletion in IR-SC WI38 cells” value is on record as “depletes Bcl-xL”. The EC50 in assay [2] (Homo sapiens) was greater than 2000 nM; in assay [4] (Homo sapiens) it was greater than 2000 nM; in assay [5] (Homo sapiens, WI-38), 2400 nM; in assay [6] (setting [8]), 100 µM. In addition, the “Bcl-xL depletion in normal WI38 (NC-WI38)” value in assay [7] is on record as “depletes Bcl-xL”. Moreover, in assay [5], the “Ratio NSC/SC” value is 41.67.

With `CC1(C)CCC(c2ccc(Cl)cc2)=C(CN2CCN(c3ccc(C(=O)NS(=O)(=O)c4ccc(N[C@H](CCN5CCN(CCOCCNc6cccc7c6C(=O)N(C6CCC(=O)NC6=O)C7=O)CC5)CSc5ccccc5)c(S(=O)(=O)C(F)(F)F)c4)cc3)CC2)C1` (stereo partly drawn) [XZ-15416, 4-(4-((4′-chloro-4,4-dimethyl-3,4,5,6-tetrahydro-[1,1′-biphenyl]-2-yl)methyl)piperazin-1-yl)-N-((4-(((2R)-4-(4-(2-(2-((2-(2,6-dioxopiperidin-3-yl)-1,3-dioxoisoindolin-4-yl)amino)ethoxy)ethyl)piperazin-1-yl)-1-(phenylthio)butan-2-yl)amino)-3-((trifluoromethyl)sulfonyl)phenyl)sulfonyl)benzamide], in assay [1] (1 μM (FIG. 4A)), the “Bcl-xL depletion in IR-SC WI38 cells” value was “deplete Bcl-xL”. The EC50 in assay [2] (Homo sapiens) was greater than 10 nM; in assay [4] (Homo sapiens), 30.7 nM; in assay [5] (Homo sapiens, WI-38) it was less than 156 nM; in assay [6] (setting [8]) it was greater than 10 µM. Also, the “Bcl-xL depletion in RS4; 11 cells” value in assay [3] was “deplete Bcl-xL”. Further, the “Ratio NSC/SC” value in assay [5] is listed as greater than 64.02.
